Several values for one entry are separate records, joined by “and”; a condition that tells them apart may be missing. Equal entries are not always repeated. Inconclusive results and toxic doses are left out.
System: CD2F1 mice, L1210 leukemia ip, survival T/C
Experiment: NCI In Vivo Anticancer Drug Screen. Data for tumor model L1210 Leukemia (intraperitoneal) in CD2F1 (CDF1) mice
Conditions: higher = longer survival
In short: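 Each value reflects a quotient of treated over vehicle control outcomes in mice with a transplanted tumor.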

[1] = endpoint: mean survival time, dose: 100.0 mg/kg/injection, schedule: Q01DX009 (ip), vehicle: saline with Tween-80
[2] = endpoint: mean survival time, dose: 200.0 mg/kg/injection, schedule: Q01DX009 (ip), vehicle: saline with Tween-80
[3] = endpoint: mean survival time, dose: 400.0 mg/kg/injection, schedule: Q01DX009 (ip), vehicle: saline with Tween-80
[4] = endpoint: mean survival time, dose: 100.0 mg/kg/injection, schedule: Q04DX002 (ip), vehicle: saline with Tween-80
[5] = endpoint: mean survival time, dose: 200.0 mg/kg/injection, schedule: Q04DX002 (ip), vehicle: saline with Tween-80
[6] = endpoint: mean survival time, dose: 400.0 mg/kg/injection, schedule: Q04DX002 (ip), vehicle: saline with Tween-80
[7] = endpoint: mean survival time, dose: 25.0 mg/kg/injection, schedule: Q04DX003 (ip), vehicle: saline

## OC(CCCCl)CC(O)(C(F)(F)F)C(F)(F)F (centres undefined)
[1]
  T/C: 102 % of control
endpoint: mean survival time, dose: 100.0 mg/kg/injection, schedule: Q04DX003 (ip), vehicle: saline with Tween-80
  T/C: 108 % of control
[2]
  T/C: 94 % of control
endpoint: mean survival time, dose: 200.0 mg/kg/injection, schedule: Q04DX003 (ip), vehicle: saline with Tween-80
  T/C: 89 % of control
[3]
  T/C: 86 % of control
endpoint: mean survival time, dose: 400.0 mg/kg/injection, schedule: Q04DX003 (ip), vehicle: saline with Tween-80
  T/C: 94 % of control

## C=C(C)CNC1=C(C)C(=O)C2=C(C1=O)[C@H](COC(N)=O)[C@]1(OC)[C@@H]3N[C@@H]3CN21
endpoint: mean survival time, dose: 1.5 mg/kg/injection, schedule: Q01DX001 (ip), vehicle: distilled water + Tween-80
  T/C: 119 % of control
endpoint: mean survival time, dose: 3.0 mg/kg/injection, schedule: Q01DX001 (ip), vehicle: distilled water + Tween-80
  T/C: 117 % of control
endpoint: mean survival time, dose: 12.0 mg/kg/injection, schedule: Q01DX001 (ip), vehicle: distilled water + Tween-80
  T/C: 101 % of control

## Nc1nc(N)nc(-c2ccncc2)n1
endpoint: mean survival time, dose: 12.5 mg/kg/injection, schedule: Q01DX009 (ip), vehicle: saline with Tween-80
  T/C: 102 % of control
endpoint: mean survival time, dose: 25.0 mg/kg/injection, schedule: Q01DX009 (ip), vehicle: saline with Tween-80
  T/C: 106 % of control
endpoint: mean survival time, dose: 50.0 mg/kg/injection, schedule: Q01DX009 (ip), vehicle: saline with Tween-80
  T/C: 102 % of control

## COC(=O)C1(C)CCCC2(C)C1CCC13OC1C1(C(C)C)OC1CC23 (centres undefined)
[1]
  T/C: 98 % of control
[2]
  T/C: 104 % of control
[3]
  T/C: 98 % of control

## CCOC(=O)/C=C(C)/C=C/C=C(/C)CCC=C(C)C
[4]
  T/C: 100 % of control
[5]
  T/C: 100 % of control
[6]
  T/C: 92 % of control

## CC(=O)OC1COC(n2c(O)c(N=NC(N)=S)c3cc([N+](=O)[O-])ccc32)C(OC(C)=O)C1OC(C)=O (centres undefined)
endpoint: mean survival time, dose: 12.5 mg/kg/injection, schedule: Q01DX005 (ip), vehicle: other
  T/C: 96 % of control
endpoint: mean survival time, dose: 25.0 mg/kg/injection, schedule: Q01DX005 (ip), vehicle: other
  T/C: 96 % of control
endpoint: mean survival time, dose: 50.0 mg/kg/injection, schedule: Q01DX005 (ip), vehicle: other
  T/C: 92 % of control
endpoint: mean survival time, dose: 100.0 mg/kg/injection, schedule: Q01DX005 (ip), vehicle: other
  T/C: 88 % of control

## COc1c(C)c2c(c3c1CC(=O)O3)C(=O)OC2
[4]
  T/C: 108 % of control
[5]
  T/C: 112 % of control
[6]
  T/C: 112 % of control

## CC(=O)Nc1ccc(SCCCc2c(N)nc(N)nc2N)cc1
endpoint: mean survival time, dose: 100.0 mg/kg/injection, schedule: Q01DX001 (ip), vehicle: saline with Tween-80
  T/C: 100 % of control
endpoint: mean survival time, dose: 200.0 mg/kg/injection, schedule: Q01DX001 (ip), vehicle: saline with Tween-80
  T/C: 100 % of control

## CN=C1C=C(NC)C(F)(F)C1(F)F
endpoint: mean survival time, dose: 6.25 mg/kg/injection, schedule: Q04DX003 (ip), vehicle: saline
  T/C: 98 % of control
endpoint: mean survival time, dose: 12.5 mg/kg/injection, schedule: Q04DX003 (ip), vehicle: saline
  T/C: 101 % of control
[7]
  T/C: 101 % of control

## NC(=S)c1ncn(C2OC(COC=O)C(OC=O)C2OC=O)c1NC=O (centres undefined)
endpoint: mean survival time, dose: 50.0 mg/kg/injection, schedule: Q04DX002 (ip), vehicle: Klucel (hydroxypropylcellulose) (HPC)
  T/C: 121 % of control
endpoint: mean survival time, dose: 100.0 mg/kg/injection, schedule: Q01DX009 (ip), vehicle: Klucel (hydroxypropylcellulose) (HPC)
  T/C: 151 % of control
[4]
  T/C: 166 % of control
endpoint: mean survival time, dose: 200.0 mg/kg/injection, schedule: Q01DX009 (ip), vehicle: Klucel (hydroxypropylcellulose) (HPC)
  T/C: 117 % of control
[5]
  T/C: 158 % of control
endpoint: mean survival time, dose: 400.0 mg/kg/injection, schedule: Q04DX002 (ip), vehicle: Klucel (hydroxypropylcellulose) (HPC)
  T/C: 159 % of control
[6]
  T/C: 154 % of control
endpoint: median survival time, dose: 12.5 mg/kg/injection, schedule: Q01DX009 (ip), vehicle: Klucel (hydroxypropylcellulose) (HPC)
  T/C: 111 % of control
endpoint: median survival time, dose: 25.0 mg/kg/injection, schedule: Q01DX009 (ip), vehicle: Klucel (hydroxypropylcellulose) (HPC)
  T/C: 122 % of control
endpoint: median survival time, dose: 200.0 mg/kg/injection, schedule: Q01DX009 (ip), vehicle: Klucel (hydroxypropylcellulose) (HPC)
  T/C: 154 % of control and 166 % of control

## CNNCCCC(=O)NC(C)C
[7]
  T/C: 105 % of control
endpoint: mean survival time, dose: 50.0 mg/kg/injection, schedule: Q04DX003 (ip), vehicle: saline
  T/C: 103 % of control
endpoint: mean survival time, dose: 100.0 mg/kg/injection, schedule: Q04DX003 (ip), vehicle: saline
  T/C: 110 % of control
endpoint: mean survival time, dose: 200.0 mg/kg/injection, schedule: Q04DX003 (ip), vehicle: saline
  T/C: 112 % of control

From PubChem BioAssay AID256 (DTP/NCI, 2004)
